From patent publication US7652054B2, “Tricyclic compounds useful as angiotensin II agonists” (Vicore Pharma AB, priority 2001, dated 2010) come the findings set out here.

The test relates to duodenal mucosal alkaline secretion. Description: Test C: duodenal mucosal alkaline secretion assay. It counts as in vivo. The conditions noted are these: co-administration with title compounds of the Examples, anaesthetised rats. The text has this:
Duodenal Mucosal Alkaline Secretion Assay
Compounds were exposed to the duodenal mucosa in barbiturate-anaesthetised rats prepared for in situ titration of duodenal mucosal alkaline secretion, according to the methodology described by Flemström et al in Am. J. Physiol. (1982) 243, G348.

With `Cc1cc(Cn2cnc3c2C[C@@H](C(=O)O)N(C(=O)C(c2ccccc2)c2ccccc2)C3)ccc1N(C)C` [PD123319], the “effect of co-administration on the mucosal alkalisation stimulated by title compounds” value is “blocked”.
